# Assays:
# Test in all cases: Test E greenhouse herbicide test, pre- and postemergence
# Assay type in all cases: in vivo
# Details in all cases: Preemergence
# [1] = system: horseweed (Conyza canadensis)
# Description: (§1) Seeds of plant species selected from corn (Zea mays), soybean (Glycine max), velvetleaf (Abutilon theophrasti), lambsquarters (Chenopodium album), wild poinsettia (Euphorbia heterophylla), pigweed, palmer (palmer pigweed, Amaranthus palmeri), waterhemp (common waterhemp, Amaranthus rudis), surinam grass (Brachiaria decumbens), crabgrass, large (large crabgrass, Digitaria sanguinalis), crabgrass, Brazilian (Brazilian crabgrass, Digitaria horizontalis), panicum, fall (fall panicum, Panicum dichotomiflorum), foxtail, giant (giant foxtail, Setaria faberii), foxtail, green (green foxtail, Setaria viridis), goosegrass (Eleusine indica), johnsongrass (Sorghum halepense), ragweed (common ragweed, Ambrosia elatior), barnyardgrass (Echinochloa crus-galli), sandbur (southem sandbur, Cenchrus echinatus), arrowleaf sida (Sida rhombifolia), Italian ryegrass (Lolium multiflorum), dayflower (Virginia (VA) dayflower, Commelina virginica), field bindweed (Convolvulus arvensis), momingglory (Ipomoea coccinea), nightshade (eastern black nightshade, Solanum ptycanthum), kochia (Kochia scoparia), nutsedge, yellow (yellow nutsedge, Cyperus esculentus), horseweed (Conyza canadensis), and beggarticks (hairy beggarticks, Bidens pilosa), were planted into a silt loam soil and treated preemergence with test chemicals formulated in a non-phytotoxic solvent mixture which included a surfactant.
# (§2) At the same time, plants from these crop and weed species and also waterhemp_RES1, (ALS & Triazine resistant common waterhemp, Amaranthus rudis), and waterhemp_RES2, (ALS & HPPD resistant common waterhemp, Amaranthus rudis) were planted in pots containing Redi-Earth® planting medium (Scotts Company, 14111 Scottslawn Road, Marysville, Ohio 43041) comprising spaghnum peat moss, vermiculite, wetting agent and starter nutrients were treated with postemergence applications of test chemicals formulated in the same manner. Plants ranged in height from 2 to 18 cm for postemergence treatments (1- to 4-leaf stage). Treated plants and controls were maintained in a greenhouse for 14 to 21 d, after which time all species were compared to controls and visually evaluated. Plant response ratings, summarized in Table E, are based on a scale of 0 to 100 where 0 is no effect and 100 is complete control. A dash (-) response means no test result.
# [2] = system: goosegrass (Eleusine indica)
# Description: as §1, §2
# [3] = system: ragweed (common ragweed, Ambrosia elatior)
# Description: as §1, §2
# [4] = system: nightshade (eastern black nightshade, Solanum ptycanthum)
# Description: as §1, §2
# [5] = system: crabgrass, Brazilian (Brazilian crabgrass, Digitaria horizontalis)
# Description: as §1, §2
# [6] = system: beggarticks (hairy beggarticks, Bidens pilosa)
# Description: as §1, §2
# [7] = system: surinam grass (Brachiaria decumbens)
# Description: as §1, §2
# [8] = system: crabgrass, large (large crabgrass, Digitaria sanguinalis)
# Description: as §1, §2
# [9] = system: kochia (Kochia scoparia)
# Description: as §1, §2
# [10] = system: waterhemp (common waterhemp, Amaranthus rudis)
# Description: as §1, §2
# [11] = system: panicum, fall (fall panicum, Panicum dichotomiflorum)
# Description: as §1, §2
# [12] = system: field bindweed (Convolvulus arvensis)
# Description: as §1, §2
# [13] = system: sandbur (southem sandbur, Cenchrus echinatus)
# Description: as §1, §2
# [14] = system: foxtail, giant (giant foxtail, Setaria faberii)
# Description: as §1, §2
# [15] = 62 g ai/ha, scale 0 to 100 (0 no effect, 100 complete control)
# [16] = 31 g ai/ha, scale 0 to 100, 0 no effect, 100 complete control
# [17] = 125 g ai/ha, visual, scale 0 no effect to 100 complete control
# [18] = 250 g ai/ha, visual, scale 0 no effect to 100 complete control
# [19] = 125 g ai/ha, scale 0 to 100 (0 no effect, 100 complete control)
smiles,measurement,setting,value
Cc1ccc2ccccc2c1-c1c(O)c(I)nn(C)c1=O [Compound 29],"Plant response rating, Horseweed",[1]; [15],100
same,"Plant response rating, Horseweed",[1]; [16],100
same,"Plant response rating, Horseweed",[1]; [17],100
same,"Plant response rating, Horseweed",[1]; [18],100
same,"Plant response rating, Goosegrass",[2]; [15],20
same,"Plant response rating, Goosegrass",[2]; [16],0
same,"Plant response rating, Goosegrass",[2]; [17],50
same,"Plant response rating, Goosegrass",[2]; [18],90
same,"Plant response rating, Ragweed",[3]; [15],85
same,"Plant response rating, Ragweed",[3]; [19],70
same,"Plant response rating, Ragweed",[3]; [16],90
same,"Plant response rating, Ragweed",[3]; [18],98
same,"Plant response rating, Nightshade",[4]; [15],70
same,"Plant response rating, Nightshade",[4]; [19],85
same,"Plant response rating, Nightshade",[4]; [16],5
same,"Plant response rating, Nightshade",[4]; [18],90
same,"Plant response rating, Crabgrass, Brazil",[5]; [15],75
same,"Plant response rating, Crabgrass, Brazil",[5]; [16],30
same,"Plant response rating, Crabgrass, Brazil",[5]; [17],70
same,"Plant response rating, Crabgrass, Brazil",[5]; [18],90
same,"Plant response rating, Beggarticks",[6]; [15],98
same,"Plant response rating, Beggarticks",[6]; [16],80
same,"Plant response rating, Beggarticks",[6]; [17],100
same,"Plant response rating, Beggarticks",[6]; [18],100
same,"Plant response rating, Surinam Grass",[7]; [15],95
same,"Plant response rating, Surinam Grass",[7]; [19],95
same,"Plant response rating, Surinam Grass",[7]; [16],75
same,"Plant response rating, Surinam Grass",[7]; [18],100
same,"Plant response rating, Crabgrass, Large",[8]; [15],25
same,"Plant response rating, Crabgrass, Large",[8]; [16],0
same,"Plant response rating, Crabgrass, Large",[8]; [17],40
same,"Plant response rating, Crabgrass, Large",[8]; [18],65
same,"Plant response rating, Kochia",[9]; [15],0
same,"Plant response rating, Kochia",[9]; [16],0
same,"Plant response rating, Kochia",[9]; [17],25
same,"Plant response rating, Kochia",[9]; [18],70
same,"Plant response rating, Waterhemp",[10]; [15],90
same,"Plant response rating, Waterhemp",[10]; [19],98
same,"Plant response rating, Waterhemp",[10]; [16],80
same,"Plant response rating, Waterhemp",[10]; [18],100
same,"Plant response rating, Panicum, Fall",[11]; [15],95
same,"Plant response rating, Panicum, Fall",[11]; [19],98
same,"Plant response rating, Panicum, Fall",[11]; [16],85
same,"Plant response rating, Panicum, Fall",[11]; [18],98
same,"Plant response rating, Field Bindweed",[12]; [15],90
same,"Plant response rating, Field Bindweed",[12]; [16],80
same,"Plant response rating, Field Bindweed",[12]; [17],95
same,"Plant response rating, Field Bindweed",[12]; [18],98
same,"Plant response rating, Sandbur",[13]; [15],75
same,"Plant response rating, Sandbur",[13]; [19],90
same,"Plant response rating, Sandbur",[13]; [16],75
same,"Plant response rating, Sandbur",[13]; [18],90
same,"Plant response rating, Foxtail, Giant",[14]; [15],80
same,"Plant response rating, Foxtail, Giant",[14]; [16],70
same,"Plant response rating, Foxtail, Giant",[14]; [17],95
same,"Plant response rating, Foxtail, Giant",[14]; [18],98
